Experimental data from patent US11078193B2 (priority 2014, dated 2021).
pEC50: −log10 of the molar value.

How the values were obtained:
HBV [1] = test: anti HBV activity, HepG2.117 inducibly HBV producing cell line (Tet-off), intracellular HBV DNA by realtime PCR; assay type: cell-based; settings: Hepatitis B virus, 72 h, HepG2.117 cells, 3 days of treatment
[2] = Cytotoxicity, HepG2 cells, Resazurin assay; assay type: cell-based; settings: human
HBV [3] = test: anti-HBV activity, HepG2.2.15 stable transfected cell line, HBV DNA from secreted virions by realtime PCR; assay type: cell-based; settings: Hepatitis B virus, 144 h, HepG2.2.15 cells, 6 days of treatment
[4] = ATP based toxicity assay (ATPlite), HepG2 cell line; settings: human, HepG2 cells, ATPlite (ATP levels)
Procedure: Alternatively, cytotoxicity was determined via an ATP-assay: The ATPlite kit from Perkin Elmer was used to assess compound cytotoxicity on the HepG2 cell line by determination of the ATP (adenosine triphosphate) levels. ATP is a marker for functional integrity and cell viability, because it is present in all metabolically active cells and any form of cell injury will result in a rapid decline in cellular ATP concentration. After compound incubation, 1 volume of ATPlite solution was added to the cells and the luminescence signal was measured.

Row | SMILES | pEC50 (HBV [1]) | CC50 at 4 days [2] [nM] | pEC50 (HBV [3]) | CC50 at 4 days [4] [nM]
1 | Cn1cc(S(=O)(=O)NC2(C(F)(F)F)CCC2)cc1C(=O)Nc1ccnc(C#N)c1 [Compound 42, N-(2-cyano-4-pyridyl)-1-methyl-4-[[1-(trifluoromethyl)cyclobutyl]-sulfamoyl]pyrrole-2-carboxamide] | 7.10 | > 25000 | 7.30 | 
2 | Cn1cc(S(=O)(=O)NC2(C(F)(F)F)CC2)c(Cl)c1C(=O)Nc1ccnc(Cl)c1 [Compound 45, 3-chloro-N-(2-chloro-4-pyridyl)-1-methyl-4-[[1-(trifluoromethyl)cyclopropyl]-sulfamoyl]pyrrole-2-carboxamide] | 7.40 | > 25000 | 7.30 | 
3 | CC[C@H](NS(=O)(=O)c1cc(C(=O)Nc2ccnc(Cl)c2)n(C)c1)C(F)(F)F [Compound 47, N-(2-chloro-4-pyridyl)-1-methyl-4-[[(1S)-1-(trifluoromethyl)propyl]-sulfamoyl]pyrrole-2-carboxamide] | 7.40 | > 25000 | 7.22 | 
4 | Cn1cc(S(=O)(=O)NC2(C(F)(F)F)CCC2)cc1C(=O)Nc1ccnc(Cl)c1 [Compound 48, N-(2-chloro-4-pyridyl)-1-methyl-4-[[1-(trifluoromethyl)cyclobutyl]-sulfamoyl]pyrrole-2-carboxamide] | 7.40 | > 25000 | 7.22 | 
5 | Cn1cc(S(=O)(=O)NC2(C(F)(F)F)CC2)cc1C(=O)Nc1ccnc(C#N)c1 [Compound 49, N-(2-cyano-4-pyridyl)-1-methyl-4-[[1-(trifluoromethyl)cyclopropyl]-sulfamoyl]pyrrole-2-carboxamide] | 6.96 | > 25000 | 6.96 | 
6 | C[C@@H](NS(=O)(=O)c1cn(C)c(C(=O)Nc2ccnc(C(F)(F)F)c2)c1F)C(C)(F)F [Compound 60, 4-[[(1R)-2,2-difluoro-1-methyl-propyl]sulfamoyl]-3-fluoro-1-methyl-N-[2-(trifluoromethyl)-4-pyridyl]pyrrole-2-carboxamide] | 7.40 | > 25000 | 6.62 | 
7 | Cn1cc(S(=O)(=O)NC2(C)CC(F)(F)C2)c(Cl)c1C(=O)Nc1ccnc(C#N)c1 [Compound 64, 3-chloro-N-(2-cyano-4-pyridyl)-4-[(3,3-difluoro-1-methyl-cyclobutyl)-sulfamoyl]-1-methyl-pyrrole-2-carboxamide] | 7.52 | 23000 | 7.70 | 
8 | Cn1cc(S(=O)(=O)NC2(C)CC(F)(F)C2)c(Cl)c1C(=O)Nc1ccnc(Cl)c1 [Compound 65, 3-chloro-N-(2-chloro-4-pyridyl)-4-[(3,3-difluoro-1-methyl-cyclobutyl)-sulfamoyl]-1-methyl-pyrrole-2-carboxamide] | 7.52 | > 25000 | 7.70 | 
9 | CC(C)NS(=O)(=O)c1cn(C)c(C(=O)Nc2ccnc(C(F)F)c2)c1F [Compound 82, N-[2-(difluoromethyl)-4-pyridyl]-3-fluoro-4-(isopropylsulfamoyl)-1-methyl-pyrrole-2-carboxamide] | 7.00 | > 25000 | 7.15 | 
10 | CC[C@@H](NS(=O)(=O)c1cn(C)c(C(=O)Nc2ccnc(C(F)F)c2)c1Cl)C(F)(F)F [Compound 85, 3-chloro-N-[2-(difluoromethyl)-4-pyridyl]-1-methyl-4-[[(1R)-1-(trifluoromethyl)propyl]sulfamoyl]pyrrole-2-carboxamide] | 7.40 | 24000 | 7.70 | 
11 | CC[C@@H](NS(=O)(=O)c1cn(C)c(C(=O)Nc2ccnc(C(F)F)c2)c1F)C(F)(F)F [Compound 87, N-[2-(difluoromethyl)-4-pyridyl]-3-fluoro-1-methyl-4-[[(1R)-1-(trifluoromethyl)propyl]sulfamoyl]pyrrole-2-carboxamide] | 7.52 | > 25000 | 7.70 | 
12 | C[C@@H](NS(=O)(=O)c1cn(C)c(C(=O)Nc2ccnc(C#N)c2)c1Cl)C(C)(F)F [Compound 96, 3-chloro-N-(2-cyano-4-pyridyl)-4-[[(1R)-2,2-difluoro-1-methyl-propyl]sulfamoyl]-1-methyl-pyrrole-2-carboxamide] | 7.40 | > 25000 | 7.40 | 
13 | Cn1cc(S(=O)(=O)NC2(C)CC(F)(F)C2)c(Cl)c1C(=O)Nc1ccnc(F)c1 [Compound 116, 3-chloro-4-[(3,3-difluoro-1-methyl-cyclobutyl)sulfamoyl]-N-(2-fluoro-4-pyridyl)-1-methyl-pyrrole-2-carboxamide] | 7.70 | > 25000 | 6.68 | 
14 | C[C@@H](NS(=O)(=O)c1cn(C)c(C(=O)Nc2ccnc(Cl)c2F)c1F)C(F)(F)F [Compound 118, N-(2-chloro-3-fluoro-4-pyridyl)-3-fluoro-1-methyl-4-[[(1R)-2,2,2-trifluoro-1-methyl-ethyl]sulfamoyl]pyrrole-2-carboxamide] | 8.00 | > 25000 | 7.00 | 
15 | C[C@@H](NS(=O)(=O)c1cn(C)c(C(=O)Nc2ccnc(Br)c2)c1F)C(C)(F)F [Compound 124, N-(2-bromo-4-pyridyl)-4-[[(1R)-2,2-difluoro-1-methyl-propyl]sulfamoyl]-3-fluoro-1-methyl-pyrrole-2-carboxamide] | 8.00 | > 25000 | > 7.00 | 
16 | C[C@@H](NS(=O)(=O)c1cn(C)c(C(=O)Nc2ccnc(Cl)c2F)c1F)C(C)(F)F [Compound 125, N-(2-chloro-3-fluoro-4-pyridyl)-4-[[(1R)-2,2-difluoro-1-methyl-propyl]sulfamoyl]-3-fluoro-1-methyl-pyrrole-2-carboxamide] | 8.10 | > 25000 | > 7.00 | 
17 | C[C@@H](NS(=O)(=O)c1cn(C)c(C(=O)Nc2cc(Cl)nc(Cl)c2)c1F)C(F)(F)F [Compound 126, N-(2,6-dichloro-4-pyridyl)-3-fluoro-1-methyl-4-[[(1R)-2,2,2-trifluoro-1-methyl-ethyl]sulfamoyl]pyrrole-2-carboxamide] | 7.70 | > 25000 | 7.70 | 
18 | C[C@@H](NS(=O)(=O)c1cn(C)c(C(=O)Nc2ccnc(C(C)(F)F)c2)c1F)C(F)(F)F [Compound 129, N-[2-(1,1-difluoroethyl)-4-pyridyl]-3-fluoro-1-methyl-4-[[(1R)-2,2,2-trifluoro-1-methyl-ethyl]sulfamoyl]pyrrole-2-carboxamide] | 6.40 | > 25000 | 6.09 | 
19 | Cn1cc(S(=O)(=O)NC2(C)CC(F)(F)C2)c(F)c1C(=O)Nc1cc(Cl)nc(Cl)c1 [Compound 136, N-(2,6-dichloro-4-pyridyl)-4-[(3,3-difluoro-1-methyl-cyclobutyl)sulfamoyl]-3-fluoro-1-methyl-pyrrole-2-carboxamide] | 7.70 |  |  | 9500
20 | Cc1cc(NC(=O)c2c(Cl)c(S(=O)(=O)N[C@H](C)C(F)(F)F)cn2C)cc(F)n1 [Compound 137, 3-chloro-N-(2-fluoro-6-methyl-4-pyridyl)-1-methyl-4-[[(1R)-2,2,2-trifluoro-1-methyl-ethyl]sulfamoyl]pyrrole-2-carboxamide] | 7.70 | > 25000 | > 7.00 | 
21 | C[C@@H](NS(=O)(=O)c1cn(C)c(C(=O)Nc2ccnc(C#N)c2F)c1Cl)C(F)(F)F [Compound 143, 3-chloro-N-(2-cyano-3-fluoro-4-pyridyl)-1-methyl-4-[[(1R)-2,2,2-trifluoro-1-methyl-ethyl]sulfamoyl]pyrrole-2-carboxamide] | 7.70 | > 25000 | 6.74 | 
22 | C[C@@H](NS(=O)(=O)c1cn(C)c(C(=O)Nc2ccnc(CF)c2)c1Cl)C(F)(F)F [Compound 145, 3-chloro-N-[2-(fluoromethyl)-4-pyridyl]-1-methyl-4-[[(1R)-2,2,2-trifluoro-1-methyl-ethyl]sulfamoyl]pyrrole-2-carboxamide] | 7.10 |  |  | > 25000
23 | Cn1cc(S(=O)(=O)NC2(C)CC(F)(F)C2)c(Cl)c1C(=O)Nc1ccnc(C#N)c1F [Compound 162, 3-chloro-N-(2-cyano-3-fluoro-4-pyridyl)-4-[(3,3-difluoro-1-methyl-cyclobutyl)sulfamoyl]-1-methyl-pyrrole-2-carboxamide] | 7.70 |  |  | > 25000
24 | Cn1cc(S(=O)(=O)NC2CCC2(F)F)c(F)c1C(=O)Nc1ccnc(Cl)c1 (centres unmarked) [Compound 174, N-(2-chloro-4-pyridyl)-4-[(2,2-difluorocyclobutyl)sulfamoyl]-3-fluoro-1-methyl-pyrrole-2-carboxamide] | 6.96 |  |  | > 25000
25 | Cn1cc(S(=O)(=O)NC(C)(C)C(F)(F)F)c(F)c1C(=O)Nc1ccnc(C#N)c1 [Compound 188, N-(2-cyano-4-pyridyl)-3-fluoro-1-methyl-4-[(2,2,2-trifluoro-1,1-dimethyl-ethyl)sulfamoyl]pyrrole-2-carboxamide] | 7.00 |  |  | > 25000
26 | Cn1cc(S(=O)(=O)NC(C)(C)C(F)(F)F)c(F)c1C(=O)Nc1cc(F)nc(F)c1 [Compound 189, N-(2,6-difluoro-4-pyridyl)-3-fluoro-1-methyl-4-[(2,2,2-trifluoro-1,1-dimethyl-ethyl)sulfamoyl]pyrrole-2-carboxamide] | 7.22 |  |  | > 25000
27 | Cn1cc(S(=O)(=O)NC(C)(C)C(F)(F)F)c(F)c1C(=O)Nc1ccnc(C(F)F)c1 [Compound 190, N-[2-(difluoromethyl)-4-pyridyl]-3-fluoro-1-methyl-4-[(2,2,2-trifluoro-1,1-dimethyl-ethyl)sulfamoyl]pyrrole-2-carboxamide] | 7.30 |  |  | > 25000
